Test results as given in patent publication US8497385B2, “Bryostatin analogues, synthetic methods and uses” (The Board of Trustees of the Leland Stanford Junior …, priority 2007, dated 2013).

Columns and labels:
OVCAR-3 = test: NCI growth inhibition, OVCAR-3 (Ovarian); type: cell-based, human
HL-60(TB) = type: cell-based, human
OVCAR-4 = test: NCI growth inhibition, OVCAR-4 (Ovarian); type: cell-based, human
BT-549 = test: NCI growth inhibition, BT-549 (Breast); type: cell-based, human
HOP-92 = test: NCI growth inhibition, HOP-92 (NSC Lung); type: cell-based, human
PC-3 = test: NCI growth inhibition, PC-3 (Prostate); type: cell-based, human
SR = test: NCI growth inhibition, SR (Leukemia); type: cell-based, human
T-47D = test: NCI growth inhibition, T-47D (Breast); type: cell-based, human
SK-MEL-28 = test: NCI growth inhibition, SK-MEL-28 (Melanoma); type: cell-based, human
A498 = test: NCI growth inhibition, A498 (Renal); type: cell-based, human
SN12C = test: NCI growth inhibition, SN12C (Renal); type: cell-based, human
UO-31 = test: NCI growth inhibition, UO-31 (Renal); type: cell-based, human
IGROVI = test: NCI growth inhibition, IGROVI (Ovarian); type: cell-based, human
COLO 205 = test: NCI growth inhibition, COLO 205 (Colon); type: cell-based, human
LOX IMVI = test: NCI growth inhibition, LOX IMVI (Melanoma); type: cell-based, human
SF-295 = test: NCI growth inhibition, SF-295 (CNS); type: cell-based, human
SF-268 = test: NCI growth inhibition, SF-268 (CNS); type: cell-based, human
MCF7 = test: NCI growth inhibition, MCF7 (Breast); type: cell-based, human
CCRF-CEM = test: NCI growth inhibition, CCRF-CEM (Leukemia); type: cell-based, human
NCI/ADR-RES = test: NCI growth inhibition, NCI/ADR-RES (Breast); type: cell-based, human
UACC-62 = test: NCI growth inhibition, UACC-62 (Melanoma); type: cell-based, human
SK-MEL-2 = test: NCI growth inhibition, SK-MEL-2 (Melanoma); type: cell-based, human
SK-OV-3 = test: NCI growth inhibition, SK-OV-3 (Ovarian); type: cell-based, human
PKCδ-C1B = PKCδ-C1B (Homo sapiens (Human), UniProt Q05655); test: PKCδ-C1B Assay; type: binding
Sequence of PKCδ-C1B (Q05655 whole entry, looked up): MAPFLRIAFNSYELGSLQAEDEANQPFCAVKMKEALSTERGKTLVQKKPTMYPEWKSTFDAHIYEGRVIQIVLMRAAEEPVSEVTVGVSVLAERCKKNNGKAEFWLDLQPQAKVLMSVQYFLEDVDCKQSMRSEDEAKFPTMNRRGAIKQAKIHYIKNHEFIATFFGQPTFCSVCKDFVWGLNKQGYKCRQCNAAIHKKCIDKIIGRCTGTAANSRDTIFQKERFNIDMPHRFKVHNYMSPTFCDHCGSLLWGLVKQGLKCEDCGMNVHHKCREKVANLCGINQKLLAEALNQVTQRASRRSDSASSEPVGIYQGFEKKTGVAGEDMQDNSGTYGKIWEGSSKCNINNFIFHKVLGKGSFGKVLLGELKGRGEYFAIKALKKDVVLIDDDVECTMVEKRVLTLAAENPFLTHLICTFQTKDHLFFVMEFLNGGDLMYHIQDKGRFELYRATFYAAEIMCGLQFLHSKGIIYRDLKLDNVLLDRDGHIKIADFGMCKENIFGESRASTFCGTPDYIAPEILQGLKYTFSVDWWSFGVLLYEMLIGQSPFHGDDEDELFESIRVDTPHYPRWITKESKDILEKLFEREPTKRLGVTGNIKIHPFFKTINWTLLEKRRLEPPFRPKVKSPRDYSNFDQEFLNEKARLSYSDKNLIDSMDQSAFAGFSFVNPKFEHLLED

CAKI-1 = test: NCI growth inhibition, CAKI-1 (Renal); type: cell-based, human
OVCAR-8 = test: NCI growth inhibition, OVCAR-8 (Ovarian); type: cell-based, human
P388 cell line = test: P388 Murine Lymphocytic Leukemia Cell Assay; type: cell-based
Protocol: Cells from a P388 cell line (CellGate, Inc., Sunnyvale, Calif.) are grown in RPMI 1640 cell medium containing fetal calf serum (10%), L-glutamine, penicillin, streptomycin and are split twice weekly. All compounds are first diluted with DMSO. Later serial dilutions are done with a phosphate buffer solution (HYQ DPBS modified phosphate buffered saline). All dilutions are done in glass vials and the final DMSO concentration is always below 0.5% by volume. Final two-fold dilutions are done in a 96 well plate using cell media so that each well contains 50 μL. All compounds are assayed in quadruplicate over 12 concentrations. Cell concentration is measured using a hemacytometer and the final cell concentration is adjusted to 1×10^4 cells/mL with cell medium. The resulting solution of cells (50 μL) is then added to each well and the plates are incubated for 5 days in a 37° C., 5% CO2, humidified incubator (Sanyo CO2 incubator). MTT solution (3-[4,5-dimethylthiazol-2-yl]-2,5-diphenyltetrazolium bromide, 10 μL) is then added to each well and the plates are re-incubated under identical conditions for 2 h. To each well is then added acidified isopropanol (150 μL of i-PrOH solution containing 0.05 N HCl) and mixed thoroughly. The plates are then scanned at 595 nm and the absorbances are read (Wallac Victor 1420 Multilabel Counter). The resulting data is then analyzed to determine an ED50 value using the Prism software package (GraphPad).

MDA-MB-231/ATCC = test: NCI growth inhibition, MDA-MB-231/ATCC (Breast); type: cell-based, human
DU-145 = test: NCI growth inhibition, DU-145 (Prostate); type: cell-based, human
U251 = test: NCI growth inhibition, U251 (CNS); type: cell-based, human
MDA-MB-435 = test: NCI growth inhibition, MDA-MB-435 (Breast); type: cell-based, human
A549/ATCC = test: NCI growth inhibition, A549/ATCC (NSC Lung); type: cell-based, human
SW-620 = test: NCI growth inhibition, SW-620 (Colon); type: cell-based, human
[1] = 702.1 vs C26 methyl-containing analogue, 48, 49 vs other C20 esters

In the case of `CCCCCCCC(=O)OC1C(=CC(=O)OC)CC2CC(CO)OC(=O)CC(O)CC3CCCC(CC4CCOC(C=CC(C)(C)C1(O)O2)O4)O3` (stereo not drawn) [Formula IIa (702.1)], the “Difference of GI50 (log), Desmethyl vs Bryo-1” value (“Difference of GI50 (log)” for short) (OVCAR-3; OVCAR-3) is reported as 0.27, the GI50 (OVCAR-3; OVCAR-3, Ovarian) is reported as −4.83 log of molar concentration and the “Difference of GI50 (log)” value (HL-60(TB)) is reported as −0.14. For the same molecule, the GI50 (HL-60(TB)) was −5.84 log of molar concentration, the “Difference of GI50 (log)” value (OVCAR-4; OVCAR-4) was 0.35 and the GI50 (OVCAR-4; OVCAR-4, Ovarian) was −5.15 log of molar concentration. For the same molecule, the “Difference of GI50 (log)” value (BT-549; BT-549) was 0.39, the GI50 (BT-549; BT-549, Breast) was −4.71 log of molar concentration and the “Difference of GI50 (log)” value (HOP-92; HOP-92) was 0.63. For the same molecule, the GI50 (HOP-92; HOP-92, NSC Lung) was −4.67 log of molar concentration, the “Difference of GI50 (log)” value (PC-3; PC-3) was −0.30 and the GI50 (PC-3; PC-3, Prostate) was −5.6 log of molar concentration. The “Difference of GI50 (log)” value (SR) was −0.10, the GI50 (SR; Leukemia) was −5.1 log of molar concentration and the “Difference of GI50 (log)” value (T-47D) was 0.18. The GI50 (T-47D; Breast) was −5.02 log of molar concentration, the “Difference of GI50 (log)” value (SK-MEL-28; SK-MEL-28) was 0.43 and the GI50 (SK-MEL-28; SK-MEL-28, Melanoma) was −4.67 log of molar concentration. For the same molecule, the “Difference of GI50 (log)” value (A498; A498) was −1.38, the GI50 (A498; A498, Renal) was −6.38 log of molar concentration and the “Difference of GI50 (log)” value (SN12C) was −0.49. For the same molecule, the GI50 (SN12C; Renal) was −5.59 log of molar concentration, the “Difference of GI50 (log)” value (UO-31; UO-31) was 0.75 and the GI50 (UO-31; UO-31, Renal) was −4.85 log of molar concentration. The “Difference of GI50 (log)” value (IGROVI) was 0.42, the GI50 (IGROVI; Ovarian) was −4.88 log of molar concentration and the “Difference of GI50 (log)” value (COLO 205; COLO 205) was −1.68. The GI50 (COLO 205; COLO 205, Colon) was −7.08 log of molar concentration, the “Difference of GI50 (log)” value (LOX IMVI) was −0.37 and the GI50 (LOX IMVI; Melanoma) was −5.47 log of molar concentration. The “Difference of GI50 (log)” value (SF-295; SF-295) was −0.85, the GI50 (SF-295; SF-295, CNS) was −6.05 log of molar concentration and the “Difference of GI50 (log)” value (SF-268; SF-268) was 0.13. The GI50 (SF-268; SF-268, CNS) was −4.97 log of molar concentration, the “Difference of GI50 (log)” value (MCF7; MCF7) was −0.20 and the GI50 (MCF7; MCF7, Breast) was −5.4 log of molar concentration. For the same molecule, the “Difference of GI50 (log)” value (CCRF-CEM) was −0.51, the GI50 (CCRF-CEM; Leukemia) was −5.81 log of molar concentration and the GI50 (NCI/ADR-RES) was −4.74 log of molar concentration. For the same molecule, the “Difference of GI50 (log)” value (UACC-62; UACC-62) was 0.19, the GI50 (UACC-62; UACC-62, Melanoma) was −5.11 log of molar concentration and the “Difference of GI50 (log)” value (SK-MEL-2; SK-MEL-2) was 0.18. For the same molecule, the GI50 (SK-MEL-2; SK-MEL-2, Melanoma) was −5.02 log of molar concentration, the “Difference of GI50 (log)” value (SK-OV-3; SK-OV-3) was 0.80 and the GI50 (SK-OV-3; SK-OV-3, Ovarian) was −4.3 log of molar concentration. For the same molecule, the “activity in PKCδ-C1B assay relative to comparison analogues” value (PKCδ-C1B; [1]) was “significantly higher activity”, the Ki (PKCδ-C1B; competition with tritiated phorbol 12,13-dibutyrate) was 0.3 ± 0.07 nM and the “Difference of GI50 (log)” value (CAKI-1; CAKI-1) was −0.30. The GI50 (CAKI-1; CAKI-1, Renal) was −5.7 log of molar concentration, the “Difference of GI50 (log)” value (OVCAR-8; OVCAR-8) was 0.33 and the GI50 (OVCAR-8; OVCAR-8, Ovarian) was −4.77 log of molar concentration. For the same molecule, the “activity in P388 assay relative to comparison analogues” value (P388 cell line; [1]) was “significantly higher activity”, the “P388 Assay ED50” value (P388 cell line; 5 days incubation, MTT) was 17 nM and the “Difference of GI50 (log)” value (MDA-MB-231/ATCC) was −0.49. The GI50 (MDA-MB-231/ATCC; Breast) was −5.69 log of molar concentration, the “Difference of GI50 (log)” value (DU-145; DU-145) was −0.02 and the GI50 (DU-145; DU-145, Prostate) was −5.02 log of molar concentration. For the same molecule, the “Difference of GI50 (log)” value (U251; U251) was −0.30, the GI50 (U251; U251, CNS) was −5.4 log of molar concentration and the “Difference of GI50 (log)” value (MDA-MB-435; MDA-MB-435) was −2.56. For the same molecule, the GI50 (MDA-MB-435; MDA-MB-435, Breast) was −7.66 log of molar concentration, the “more active than bryostatin-1” value (MDA-MB-435; MDA-MB-435, Breast) was “more than 2 orders of magnitude” and the “Difference of GI50 (log)” value (A549/ATCC) was −1.42. For the same molecule, the GI50 (A549/ATCC; NSC Lung) was −6.62 log of molar concentration, the “Difference of GI50 (log)” value (SW-620; SW-620) was 0.38 and the GI50 (SW-620; SW-620, Colon) was −5.12 log of molar concentration.
